Test results: the supplement of paper PMC4862054

What was measured:
Settings in all cases: incubation time: 72 h
MDA-MB-231 [1] = assay: normalised response (% of control), CellTox Green; higher = less cell death (100 = DMSO, 0 = benzethonium chloride kill control)
In short: (§1)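 Breast cancer cell lines, seeded at 20 µl suspension per well, were incubated for 72 h in 384-well plates containing compound at 5 concentrations. These concentrations rose in 10-fold steps over a 10,000-fold range set for each compound. CellTox Green fluorescence (485/520 nm) was read, then CellTiter-Glo luminescence after 10 min at room temperature, and each plate was normalised to 0.1 % DMSO (100) and a positive kill control (0). Values are normalised signals, each at one concentration.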

HDQ-P1 [2] = assay: as above
In short: as §1

CAL-120 [3] = assay: as above
In short: as §1

MFM-223 [4] = assay: as above
In short: as §1

HCC1937 [5] = assay: as above
In short: as §1

DU-4475 [6] = assay: as above
In short: as §1

MCF-10A [7] = assay: as above
In short: as §1

BT-474 [8] = assay: as above
In short: as §1

CAL-148 [9] = assay: as above
In short: as §1

CAL-51 [10] = assay: as above
In short: as §1

HCC1599 [11] = assay: as above
In short: as §1

CAL-85-1 [12] = assay: as above
In short: as §1

MDA-MB-436 [13] = assay: as above
In short: as §1

MDA-MB-468 [14] = assay: as above
In short: as §1

Hs578T [15] = assay: as above
In short: as §1

HCC1143 [16] = assay: as above
In short: as §1

MDA-MB-453 [17] = assay: as above
In short: as §1

BT-549 [18] = assay: as above
In short: as §1

MDA-MB-231 [19] = assay: normalised response (% of control), CellTiter-Glo; higher = more viable cells (100 = DMSO, 0 = benzethonium chloride kill control)
Protocol: (§2)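 DSRT, 72 h incubation, CellTox Green / CellTiter-Glo readout. Signal is normalised to DMSO and benzethonium chloride controls. Value is the normalised response at the highest dose.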

HDQ-P1 [20] = assay: as above
Protocol: as §2

CAL-120 [21] = assay: as above
Protocol: as §2

MFM-223 [22] = assay: as above
Protocol: as §2

HCC1937 [23] = assay: as above
Protocol: as §2

DU-4475 [24] = assay: as above
Protocol: as §2

MCF-10A [25] = assay: as above
Protocol: as §2

BT-474 [26] = assay: as above
Protocol: as §2

CAL-148 [27] = assay: as above
Protocol: as §2

CAL-51 [28] = assay: as above
Protocol: as §2

HCC1599 [29] = assay: as above
Protocol: as §2

SK-BR-3 = assay: as above
Protocol: as §2

CAL-85-1 [30] = assay: as above
Protocol: as §2

MDA-MB-436 [31] = assay: as above
Protocol: as §2

MDA-MB-468 [32] = assay: as above
Protocol: as §2

Hs578T [33] = assay: as above
Protocol: as §2

HCC1143 [34] = assay: as above
Protocol: as §2

MDA-MB-453 [35] = assay: as above
Protocol: as §2

BT-549 [36] = assay: as above
Protocol: as §2

| Structure (SMILES) | normalised response (MDA-MB-231 [1]) | normalised response (HDQ-P1 [2]) | normalised response (CAL-120 [3]) | normalised response (MFM-223 [4]) | normalised response (HCC1937 [5]) | normalised response (DU-4475 [6]) | normalised response (MCF-10A [7]) | normalised response (BT-474 [8]) | normalised response (CAL-148 [9]) | normalised response (CAL-51 [10]) | normalised response (HCC1599 [11]) | normalised response (CAL-85-1 [12]) | normalised response (MDA-MB-436 [13]) | normalised response (MDA-MB-468 [14]) | normalised response (Hs578T [15]) | normalised response (HCC1143 [16]) | normalised response (MDA-MB-453 [17]) | normalised response (BT-549 [18]) | normalised response (MDA-MB-231 [19]) | normalised response (HDQ-P1 [20]) | normalised response (CAL-120 [21]) | normalised response (MFM-223 [22]) | normalised response (HCC1937 [23]) | normalised response (DU-4475 [24]) | normalised response (MCF-10A [25]) | normalised response (BT-474 [26]) | normalised response (CAL-148 [27]) | normalised response (CAL-51 [28]) | normalised response (HCC1599 [29]) | normalised response (SK-BR-3) | normalised response (CAL-85-1 [30]) | normalised response (MDA-MB-436 [31]) | normalised response (MDA-MB-468 [32]) | normalised response (Hs578T [33]) | normalised response (HCC1143 [34]) | normalised response (MDA-MB-453 [35]) | normalised response (BT-549 [36]) |
| --- | --- | --- | --- | --- | --- | --- | --- | --- | --- | --- | --- | --- | --- | --- | --- | --- | --- | --- | --- | --- | --- | --- | --- | --- | --- | --- | --- | --- | --- | --- | --- | --- | --- | --- | --- | --- | --- |
| CCCCC/C=C/C=C1/C(=O)C=C[C@@H]1C/C=C\CCCC(=O)O [15D-PGJ2] (800 nM) | 104% | 82.9% | 109% | 106% | 110% | 94.9% | 95.6% | 106% | 102% | 104% | 108% | 94.3% | 107% | 119% | 124% | 110% | 72.9% | 105% | 97.8% | 97.1% | 101% | 102% | 102% | 100% | 108% | 95.4% | 108% | 71.8% | 97% | 106% | 101% | 97.4% | 88.7% | 102% | 107% | 106% | 96.5% |
| CC(=O)OC[C@H]1O[C@@H]([S-])[C@H](OC(C)=O)[C@@H](OC(C)=O)[C@@H]1OC(C)=O.CCP(CC)CC.[Au+] [Auranofin] (2500 nM) | 13.3% | -37% | 68.4% | 56.2% | 1.35% | 91% | 76.2% | 48.5% | 60.1% | 71% | 96.3% | -5.72% | 84.1% | -35.6% | 79.6% | 73.2% | 28.8% | -11.2% | 8.02% | 11.1% | 49.8% | 21.9% | 1.72% | 32.6% | 37.9% | 47.9% | 41.8% | 9.42% | 39.1% | 34.3% | 4.51% | 22.4% | 0.33% | 19.1% | 31.8% | 1.5% | 0.2% |
